Values of other authors, collected in patent publication US6559138B1, “3-Desoxy-vitamin D3 analog esters” (Syntex (U.S.A.) LLC, priority 2001, dated 2003).

Legend:
[1] = system: women with postmenopausal osteoporosis
[2] = system: steroid-induced bone loss; settings: calcitriol 0.5 to 1.0 micrograms/day plus calcium 1000 mg/day, with or without intranasal calcitonin 400 IU/day

C=C1/C(=C\C=C2/CCC[C@]3(C)[C@@H]([C@H](C)CCCC(C)(C)O)CC[C@@H]23)C[C@@H](O)C[C@@H]1O [calcitriol, 1,25-dihydroxyvitamin D3]
hypercalcaemia ([1]; at recommended dosages): infrequent and mild | lower rate of new vertebral fractures compared with patients receiving elemental calcium 1000 mg/day ([1]; calcitriol 0.25 microgram twice daily, after 3 years of treatment, patients with mild to moderate disease): 3 fold | tolerability ([1]; overall): well tolerated | effect on steroid-induced bone loss [2]: prevented steroid-induced bone loss
